Patent publication US9034855B2, “Substituted phenylacetate and phenylpropane amides and use thereof” (Bayer Intellectual Property GmbH, priority 2010, dated 2015)
≈ marks a conversion by molar mass, not a printed value.

What was measured:
[1] = Determination of the solubility; format: physicochemical; conditions: aqueous buffer, kinetic from dmso stock; PBS buffer pH 6.5, 20° C., 24 hours shaking, from DMSO solution
Description: B-6. Determination of the Solubility
Reagents Required: • PBS buffer pH 6.5: 90.00 g of NaCl p.a. (for example from Merck, Art. No. 1.06404.1000), 13.61 g of KH2PO4 p.a. (for example from Merck, Art. No. 1.04873.1000) and 83.35 g of 1N aqueous sodium hydroxide solution (for example from Bernd Kraft GmbH, Art. No. 01030.4000) are weighed into a 1 liter measuring flask, the flask is filled with distilled water to 1 liter and the mixture is stirred for 1 hour. Using 1N hydrochloric acid (for example from Merck, Art. No. 1.09057.1000) the pH is then adjusted to 6.5. • PEG/water solution (30:70 v/v): 30 ml of polyethylene glycol 400 (for example from Merck, Art. No. 8.17003.1000) and 70 ml of distilled water are homogenized in a 100 ml measuring flask. • PEG/PBS buffer pH 6.5 (80:20 v/v): 80 ml of polyethylene glycol 400 (for example from Merck, Art. No. 8.17003.1000) and 20 ml of PBS buffer pH 6.5 are homogenized in a 100 ml measuring flask. • Dimethyl sulphoxide (for example from Baker, Art. No. 7157.2500) • Distilled water.
Preparation of the Starting Solution (Original Solution):
At least 4 mg of the test substance are weighed accurately into a wide-necked 10 mm screw V vial (from Glastechnik Gräfenroda GmbH, Art. No. 8004-WM-H/V150 with fitting screw cap and septum, in a pipetting robot DMSO is added to a concentration of 50 mg/ml and the mixture is shaken for 10 minutes.
Preparation of the Calibration Solutions:
Preparation of the starting solution for calibration solutions (stock solution): With the aid of a pipetting robot, 10 μl of the original solution are transferred into a microtiter plate and made up with DMSO to a concentration of 600 μg/ml. The sample is shaken until everything has gone into solution.
Calibration solution 1 (20 μg/ml): 1000 μl of DMSO are added to 34.4 μl of the stock solution, and the mixture is homogenized.
Calibration solution 2 (2.5 μg/ml): 700 μl of DMSO are added to 100 μl of calibration solution 1, and the mixture is homogenized.
Preparation of the Sample Solutions:
Sample solution for solubilities of up to 5 g/liter in PBS buffer pH 6.5: 10 μl of the original solution are transferred into a microtiter plate, and 1000 μl of PBS buffer pH 6.5 are added.
The sample solutions prepared in this manner are shaken at 1400 rpm in a temperature-adjustable shaker (for example Eppendorf Thermomixer comfort Art. No. 5355 000.011 with interchangeable block Art. No. 5362.000.019) at 20° C. for 24 hours. In each case 180 μl are taken from these solutions and transferred into Beckman Polyallomer Centrifuge Tubes (Art. No. 343621). These solutions are centrifuged at about 223 000×g for one hour (for example Beckman Optima L-90K Ultracentrifuge with Type 42.2 Ti Rotor at 42 000 rpm). From each of the sample solutions, 100 μl of the supernatant are removed and diluted 1:5 and 1:100 with DMSO. From each dilution, a sample is transferred into a vessel suitable for HPLC analysis.
The samples are analysed by RP-HPLC. Quantification is carried out using a two-point calibration curve of the test compound in DMSO. The solubility is expressed in mg/liter. Analysis sequence: 1) calibration solution […]; 2) calibration solution 20 μg/ml; 3) sample solution 1:5; 4) sample solution 1:100.
Agilent 1100 with DAD (G1315A), quat. pump (G1311A), autosampler CTC HTS PAL, degasser (G1322A) and column thermostat (G1316A); column: Phenomenex Gemini C18, 50 mm×2 mm, 5μ; temperature: 40° C.; mobile phase A: water/phosphoric acid pH 2; mobile phase B: acetonitrile; flow rate: 0.7 ml/min; gradient: 0-0.5 min 85% A, 15% B; ramp: 0.5-3 min 10% A, 90% B; 3-3.5 min 10% A, 90% B; ramp: 3.5-4 min 85% A, 15% B; 4-5 min 85% A, 15% B. […]

[2] = target: T1, human V1a receptor (Homo sapiens, UniProt P37288); assay: Cellular in vitro assay for determining the vasopressin receptor activity (aequorin luminescence, recombinant CHO cells), human V1a; format: cell-based; conditions: CHO cells expressing aequorin, transfected with human V1a receptor; agonist [Arg8]-vasopressin; read-out: IC50 hV1a
T1 construct: expressed in transfected cells; host or cells: CHO K1 (ATCC), constitutively expressing modified aequorin
T1 sequence (P37288 whole entry): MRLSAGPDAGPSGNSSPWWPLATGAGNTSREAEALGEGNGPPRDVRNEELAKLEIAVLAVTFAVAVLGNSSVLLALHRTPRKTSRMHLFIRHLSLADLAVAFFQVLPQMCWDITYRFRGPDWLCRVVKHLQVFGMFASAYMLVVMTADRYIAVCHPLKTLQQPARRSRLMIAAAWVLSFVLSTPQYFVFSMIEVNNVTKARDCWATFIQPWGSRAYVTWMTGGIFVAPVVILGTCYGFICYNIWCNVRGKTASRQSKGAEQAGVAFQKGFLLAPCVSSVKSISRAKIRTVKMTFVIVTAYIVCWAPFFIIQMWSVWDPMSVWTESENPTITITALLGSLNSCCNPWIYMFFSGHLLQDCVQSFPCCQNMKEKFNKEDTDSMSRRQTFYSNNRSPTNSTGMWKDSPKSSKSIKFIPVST
Text: (§1) B-1. Cellular In Vitro Assay for Determining the Vasopressin Receptor Activity
(§2) The identification of agonists and antagonists of the V1a and V2 vasopressin receptors from humans and rats and also the quantification of the activity of the substances described here takes place using recombinant cell lines. These cells derive originally from a hamster's ovary epithelial cell (Chinese Hamster Ovary, CHO K1, ATCC: American Type Culture Collection, Manassas, Va. 20108, USA). The test cell lines constitutively express a modified form of the calcium-sensitive photoprotein aequorin, which, after reconstitution with the cofactor coelenterazine, emits light when there are increases in the free calcium concentration (Rizzuto R., Simpson A. W., Brini M., Pozzan T.; Nature 358 (1992) 325-327). In addition, the cells are stably transfected with the human or rat V1a or V2 receptors. In the case of the Gs-coupling V2 receptors, the cells are stably transfected with a further gene, which codes for the promiscuous Gα16 protein (Amatruda T. T., Steele D. A., Slepak V. Z., Simon M A., Proc. Na. Acad. Sci. USA 88 (1991), 5587-5591), either independently or as a fusion gene. The resulting vasopressin receptor test cells react to stimulation of the recombinantly expressed vasopressin receptors by intracellular release of calcium ions, which can be quantified by the resulting aequorin luminescence using a suitable luminometer (Milligan G., Marshall F., Rees S., Trends in Pharmaco. Sci. 17 (1996) 235-237).
(§3) On the day before the assay, the cells are plated out in culture medium (DMEM, 10% FCS, 2 mM glutamine, 10 mM HEPES) in 384-well microtiter plates and kept in a cell incubator (96% atmospheric humidity, 5% v/v carbon dioxide, 37° C.). On the day of the assay, the culture medium is replaced by a Tyrode solution (140 mM sodium chloride, 5 mM potassium chloride, 1 mM magnesium chloride, 2 mM calcium chloride, 20 mM glucose, 20 mM HEPES), which additionally contains the cofactor coelenterazine (50 μM), and the microtiter plate is then incubated for a further 3-4 hours. The test substances in various concentrations are placed for 10 to 20 minutes in the wells of the microtiter plate before the agonist [Arg8]-vasopressin is added, and the resulting light signal is measured immediately in the luminometer. The IC50 values are calculated using the GraphPad PRISM computer program (Version 3.02).
(§4) Table A below lists representative IC50 values for the compounds according to the invention transfected with the human V1a or V2 receptor: […]

[3] = target: T2, human V2 receptor (Homo sapiens, UniProt P30518); assay: Cellular in vitro assay for determining the vasopressin receptor activity (aequorin luminescence, recombinant CHO cells), human V2; format: cell-based; conditions: CHO cells expressing aequorin and Gα16, transfected with human V2 receptor; agonist [Arg8]-vasopressin; read-out: IC50 hV2
T2 construct: expressed in transfected cells; host or cells: CHO K1 (ATCC), constitutively expressing modified aequorin, co-transfected with promiscuous G-alpha-16
T2 sequence (P30518 whole entry): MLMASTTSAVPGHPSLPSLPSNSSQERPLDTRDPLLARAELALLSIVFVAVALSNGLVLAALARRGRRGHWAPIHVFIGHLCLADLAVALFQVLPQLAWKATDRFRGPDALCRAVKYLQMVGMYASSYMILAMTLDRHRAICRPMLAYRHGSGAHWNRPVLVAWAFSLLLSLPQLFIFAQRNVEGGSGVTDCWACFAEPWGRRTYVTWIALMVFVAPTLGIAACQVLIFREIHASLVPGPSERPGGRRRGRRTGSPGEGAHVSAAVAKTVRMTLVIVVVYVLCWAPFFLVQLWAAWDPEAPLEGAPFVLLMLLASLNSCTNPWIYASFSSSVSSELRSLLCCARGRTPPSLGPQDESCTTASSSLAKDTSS
Text: as §1, §2, §3, §4

Row | solubility at 24 h [1] [µg/mL] | IC50 [2] [nM] | IC50 [3] [nM] | Structure (SMILES)
1 | 400 (≈ 641 µM) | 3.8 | 2.6 | O=C(C[C@H](NC(=O)Cn1nc(-c2ccc(Cl)cc2)n(C[C@H](O)C(F)(F)F)c1=O)c1cccc(C(F)(F)F)c1)NCCO [Example 54, (3S)-3-[({3-(4-Chlorophenyl)-5-oxo-4-[(2S)-3,3,3-trifluoro-2-hydroxypropyl]-4,5-dihydro-1H-1,2,4-triazol-1-yl}acetyl)amino]-N-(2-hydroxyethyl)-3-[3-(trifluoromethyl)phenyl]propanamide]
2 | 360 (≈ 596 µM) | 150 | 960 | COCCn1c(-c2ccc(Cl)s2)nn(CC(=O)NC(C(=O)NC(C)(C)C(=O)O)c2cccc(C(F)(F)F)c2)c1=O (racemic) [Example 10, N-{({[3-(5-Chloro-2-thienyl)-4-(2-methoxyethyl)-5-oxo-4,5-dihydro-1H-1,2,4-triazol-1-yl]acetyl}-amino) [3-(trifluoromethyl)phenyl}acetyl]-2-methylalanine]
3 | 110 (≈ 174 µM) | 7.8 | 1180 | CC(C)(NC(=O)C(NC(=O)Cn1nc(-c2ccc(Cl)cc2)n(/C=C/C(F)(F)F)c1=O)c1ccccc1C(F)(F)F)C(N)=O (racemic) [Example 31, N^2-{[({3-(4-Chlorophenyl)-5-oxo-4-[(1E)-3,3,3-trifluoroprop-1-en-1-yl]-4,5-dihydro-1H-1,2,4-triazol-1-yl}acetyl)amino][2-(trifluoromethyl)phenyl]acetyl}-2-methylalaninamide]
4 | 340 (≈ 588 µM) | 47 | 324 | O=C(Cn1nc(-c2ccc(Cl)cc2)n(C2CC2)c1=O)NC(C(=O)NC1(C(=O)O)CC1)c1cccc(C(F)(F)F)c1 (racemic) [Example 6, 1-({({[3-(4-Chlorophenyl)-4-cyclopropyl-5-oxo-4,5-dihydro-1H-1,2,4-triazol-1-yl]acetyl}-amino)[3-(trifluoromethyl)phenyl}acetyl]amino)cyclopropanecarboxylic acid]
5 | 100 (≈ 160 µM) | 9.7 | 42 | O=C(Cn1nc(-c2ccc(Cl)cc2)n(C[C@H](O)C(F)(F)F)c1=O)NC(C(=O)NCCO)c1cccc(OC(F)(F)F)c1 (stereo partly drawn) [Example 52, 2-[({3-(4-Chlorophenyl)-5-oxo-4-[(2S)-3,3,3-trifluoro-2-hydroxypropyl]-4,5-dihydro-1H-1,2,4-triazol-1-yl}acetyl)amino]-N-(2-hydroxyethyl)-2-[3-(trifluoromethoxy)phenyl]acetamide]
6 | 360 (≈ 541 µM) | 1 | 0.8 | CC(C)(NC(=O)[C@](C)(NC(=O)Cn1nc(-c2ccc(Cl)cc2)n(C[C@H](O)C(F)(F)F)c1=O)c1cccc(C(F)(F)F)c1)C(=O)O [Example 21, N-{(2R)-2-[({3-(4-Chlorophenyl)-5-oxo-4-[(2S)-3,3,3-trifluoro-2-hydroxypropyl]-4,5-dihydro-1H-1,2,4-triazol-1-yl}acetyl)amino]-2-[3-(trifluoromethyl)phenyl]propanoyl}-2-methylalanine]
